These results are taken from patent publication US20250084074A1, “SUBSTITUTED HETEROCYCLES AS HSET INHIBITORS” (MERCK PATENT GMBH, priority 2022, published 2025).

Structures can show the parent of a compound that is named as a salt.

Chain of HSET full length protein (Q9BW19 whole entry): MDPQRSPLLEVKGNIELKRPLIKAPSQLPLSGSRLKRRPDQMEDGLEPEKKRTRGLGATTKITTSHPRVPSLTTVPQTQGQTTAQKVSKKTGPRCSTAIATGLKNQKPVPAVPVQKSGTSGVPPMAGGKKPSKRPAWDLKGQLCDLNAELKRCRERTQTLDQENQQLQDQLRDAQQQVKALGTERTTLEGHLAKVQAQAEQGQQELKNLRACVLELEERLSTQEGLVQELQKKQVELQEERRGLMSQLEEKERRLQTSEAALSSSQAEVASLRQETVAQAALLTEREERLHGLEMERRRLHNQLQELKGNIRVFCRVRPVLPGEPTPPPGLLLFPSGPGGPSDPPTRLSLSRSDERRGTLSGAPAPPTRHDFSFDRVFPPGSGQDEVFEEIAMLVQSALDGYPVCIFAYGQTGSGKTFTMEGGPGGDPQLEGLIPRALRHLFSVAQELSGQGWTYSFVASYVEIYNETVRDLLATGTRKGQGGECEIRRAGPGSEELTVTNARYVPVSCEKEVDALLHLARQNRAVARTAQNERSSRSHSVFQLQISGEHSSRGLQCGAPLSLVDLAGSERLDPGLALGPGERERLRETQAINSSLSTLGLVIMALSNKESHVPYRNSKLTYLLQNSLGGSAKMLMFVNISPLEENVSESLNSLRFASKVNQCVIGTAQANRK

For this experiment, the target named is HSET full length protein (Homo sapiens (Human), UniProt Q9BW19). In words: HSET ADP-Glo Assay S - 3 μM ATP. Conditions: 5 nM HSET, 70 μg/mL microtubule, 80 min at rt, read-out: COMBINED HSET ADP GLO IC50. It is filed as biochemical. A digest of the protocol:
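Full-length human HSET (5 nM) with paclitaxel-stabilised bovine brain microtubules (70 μg/mL) in HEPES pH 6.8 buffer was preincubated 10 min with compound. ATP at 3 μM started the reaction, which ran 80 min at rt. ADP formed was measured by ADP-Glo luminescence.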
On to `CC(=O)NCCCCOC(=O)c1sc(NC(=O)CCNC(=O)c2cccc(-c3noc(C)n3)c2)nc1C` [Example 130, 4-Acetamidobutyl 4-methyl-2-(3-(3-(5-methyl-1,2,4-oxadiazol-3-yl)benzamido)propanamido)thiazole-5-carboxylate], for which the IC50 was determined as 15400 nM.
As for `CCCOC(=O)c1cc(NC(=O)CCNc2nccc3ccc(-c4noc(C)n4)cc23)nn1C` [Example 131, Propyl-1-methyl-3-(3-((7-(5-methyl-1,2,4-oxadiazol-3-yl)isoquinolin-1-yl)amino)propanamido)-1 H-pyrazole-5-carboxylate formate], the figure is 16 nM.
As for `Cc1nc(-c2cccc(C(=O)NCCC(=O)Nc3nc(C)c(C(=O)OC(C)(C)C)s3)c2)no1` [Example 132, Tert-butyl-4-methyl-2-(3-(3-(5-methyl-1,2,4-oxadiazol-3-yl)benzamido)propanamido)thiazole-5-carboxylate], the figure is 10 nM; as for `CCOC(=O)c1sc(NC(=O)CCNC(=O)c2cccc(-c3noc(C)n3)c2)cc1C` [Example 133, Ethyl-3-methyl-5-[3-[[3-(5-methyl-1,2,4-oxadiazol-3-yl)benzoyl]amino]propanoylamino]thiophene-2-carboxylate], 93 nM.
Consider `CCCN(C(=O)CCNC(=O)c1cccc(-c2noc(C)n2)c1)c1nc(C)c(C(=O)OCC)s1` [Example 134, Ethyl-4-methyl-2-(3-(3-(5-methyl-1,2,4-oxadiazol-3-yl)benzamido)-N-propylpropanamido)thiazole-5-carboxylate], for which the IC50 amounted to 1310 nM.
On to `CCOC(=O)c1cc(NC(=O)CCNc2nccc3ccc(-c4noc(C)n4)cc23)n[nH]1` [Example 135, Ethyl-3-(3-((7-(5-methyl-1,2,4-oxadiazol-3-yl)isoquinolin-1-yl)amino)propanamido)-1 H-pyrazole-5-carboxylate], for which the concentration for half-maximal inhibition (IC50) came out at 428 nM.
As for `Cc1nc(-c2cc(C(=O)NCCC(=O)Nc3nc(C)c(C(=O)OCCCCCCO)s3)cc(C(F)(F)F)c2)no1` [Example 136, 6-Hydroxyhexyl 4-methyl-2-(3-(3-(5-methyl-1,2,4-oxadiazol-3-yl)-5-(trifluoromethyl)benzamido)propanamido)thiazole-5-carboxylate], the figure is 737 nM.
In the case of `CCCCc1sc(C(=O)NCCNc2nccc3ccc(-c4noc(C)n4)cc23)nc1C` [Example 137, 5-Butyl-4-methyl-N-(2-((7-(5-methyl-1,2,4-oxadiazol-3-yl)isoquinolin-1-yl)amino)ethyl)thiazole-2-carboxamide formate], the IC50 worked out at 778 nM.
For the compound `Cc1nc(-c2ccc3ccnc(NCCC(=O)Nc4cc(C(=O)OC5CCCC5)n(C)n4)c3c2)no1` [Example 138, Cyclopentyl-1-methyl-3-(3-((7-(5-methyl-1,2,4-oxadiazol-3-yl)isoquinolin-1-yl)amino)propanamido)-1 H-pyrazole-5-carboxylate], the IC50 was determined as 11 nM.
The result for `CCOC(=O)c1sc(C(=O)NCCNC(=O)c2cccc(-c3noc(CC)n3)c2)nc1C` [Example 140, Ethyl-2-((2-(3-(5-ethyl-1,2,4-oxadiazol-3-yl)benzamido)ethyl)carbamoyl)-4-methylthiazole-5-carboxylate] reads 5040 nM.
Regarding `CCOC(=O)c1sc(C(=O)NCCNC(=O)c2cccc(-c3noc(C)n3)c2)nc1C` [Example 141, Ethyl-4-methyl-2-((2-(3-(5-methyl-1,2,4-oxadiazol-3-yl)benzamido)ethyl)carbamoyl)thiazole-5-carboxylate], the IC50 turned out to be 405 nM.
With `CCOC(=O)c1sc(NC(=O)C[C@@H](C)NC(=O)c2cccc(-c3noc(C)n3)c2)nc1C` [Example 142, Ethyl-(R)-4-methyl-2-(3-(3-(5-methyl-1,2,4-oxadiazol-3-yl)benzamido)butanamido)thiazole-5-carboxylate], the IC50 is 288 nM.
The result for `CCOC(=O)c1sc(NC(=O)C[C@H](C)NC(=O)c2cccc(-c3noc(C)n3)c2)nc1C` [Example 143, Ethyl-(S)-4-methyl-2-(3-(3-(5-methyl-1,2,4-oxadiazol-3-yl)benzamido)butanamido)thiazole-5-carboxylate] reads 61 nM.

A word on the IC50: it is the point on the concentration scale where inhibition reaches its midpoint.
